Data taken from PubChem BioAssay (NCI).
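Five compound concentrations were applied to cells in 96-well plates for 48 hours; endpoints were derived by simple linear interpolation of the resulting dose-response curve. GI50: concentration for 50% inhibition of growth. TGI: concentration producing complete growth inhibition.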

Assays:
Assay in all cases: NCI-60 cell line screen, 48 h
786-0 renal = test system: 786-0 renal
A498 renal = test system: A498 renal
A549 NSCLC = test system: A549 NSCLC
ACHN renal = test system: ACHN renal
BT-549 breast = test system: BT-549 breast
CAKI-1 renal = test system: CAKI-1 renal
CCRF-CEM leukemia = test system: CCRF-CEM leukemia
COLO 205 colon = test system: COLO 205 colon
EKVX NSCLC = test system: EKVX NSCLC
HCT-116 colon = test system: HCT-116 colon
HCT-15 colon = test system: HCT-15 colon
HL-60(TB) leukemia = test system: HL-60(TB) leukemia
HOP-62 NSCLC = test system: HOP-62 NSCLC
HOP-92 NSCLC = test system: HOP-92 NSCLC
HS 578T breast = test system: HS 578T breast
HT29 colon = test system: HT29 colon
IGROV1 ovarian = test system: IGROV1 ovarian
K-562 leukemia = test system: K-562 leukemia
KM12 colon = test system: KM12 colon
LOX IMVI melanoma = test system: LOX IMVI melanoma
M14 melanoma = test system: M14 melanoma
MALME-3M melanoma = test system: MALME-3M melanoma
MCF7 breast = test system: MCF7 breast
MDA-MB-231 breast = test system: MDA-MB-231 breast
MDA-MB-435 = test system: MDA-MB-435
MDA-N = test system: MDA-N
MOLT-4 leukemia = test system: MOLT-4 leukemia
NCI-H226 lung = test system: NCI-H226 lung
NCI-H23 lung = test system: NCI-H23 lung
NCI-H460 lung = test system: NCI-H460 lung
NCI-H522 lung = test system: NCI-H522 lung
NCI/ADR-RES ovarian = test system: NCI/ADR-RES ovarian
OVCAR-3 ovarian = test system: OVCAR-3 ovarian
OVCAR-4 ovarian = test system: OVCAR-4 ovarian
OVCAR-5 ovarian = test system: OVCAR-5 ovarian
OVCAR-8 ovarian = test system: OVCAR-8 ovarian
PC-3 prostate = test system: PC-3 prostate
RPMI-8226 leukemia = test system: RPMI-8226 leukemia
RXF 393 renal = test system: RXF 393 renal
SF-268 CNS = test system: SF-268 CNS
SF-295 CNS = test system: SF-295 CNS
SF-539 CNS = test system: SF-539 CNS
SK-MEL-2 melanoma = test system: SK-MEL-2 melanoma
SK-MEL-5 melanoma = test system: SK-MEL-5 melanoma
SK-OV-3 ovarian = test system: SK-OV-3 ovarian
SNB-19 CNS = test system: SNB-19 CNS
SNB-75 CNS = test system: SNB-75 CNS
SW-620 colon = test system: SW-620 colon
T-47D breast = test system: T-47D breast
TK-10 renal = test system: TK-10 renal
U251 CNS = test system: U251 CNS
UACC-257 melanoma = test system: UACC-257 melanoma
UACC-62 melanoma = test system: UACC-62 melanoma
UO-31 renal = test system: UO-31 renal
DU-145 prostate = test system: DU-145 prostate
HCC-2998 colon = test system: HCC-2998 colon
SK-MEL-28 melanoma = test system: SK-MEL-28 melanoma
SN12C renal = test system: SN12C renal
SR leukemia = test system: SR leukemia

O=C1CCCNn2c(nc3ncccc3c2=O)N1
TGI (786-0 renal): > 100 µM | TGI (A498 renal): > 100 µM | TGI (A549 NSCLC): > 100 µM | TGI (ACHN renal): > 100 µM | TGI (BT-549 breast): > 100 µM | TGI (CAKI-1 renal): > 100 µM | TGI (CCRF-CEM leukemia): > 100 µM | TGI (COLO 205 colon): > 100 µM | TGI (EKVX NSCLC): > 100 µM | TGI (HCT-116 colon): > 100 µM | TGI (HCT-15 colon): > 100 µM | TGI (HL-60(TB) leukemia): > 100 µM | TGI (HOP-62 NSCLC): > 100 µM | TGI (HOP-92 NSCLC): > 100 µM | TGI (HS 578T breast): > 100 µM | TGI (HT29 colon): > 100 µM | TGI (IGROV1 ovarian): > 100 µM | TGI (K-562 leukemia): > 100 µM | TGI (KM12 colon): > 100 µM | TGI (LOX IMVI melanoma): > 100 µM | TGI (M14 melanoma): > 100 µM | TGI (MALME-3M melanoma): > 100 µM | TGI (MCF7 breast): > 100 µM | TGI (MDA-MB-231 breast): > 100 µM | TGI (MDA-MB-435): > 100 µM | TGI (MDA-N): > 100 µM | TGI (MOLT-4 leukemia): > 100 µM | TGI (NCI-H226 lung): > 100 µM | TGI (NCI-H23 lung): > 100 µM | TGI (NCI-H460 lung): > 100 µM | TGI (NCI-H522 lung): > 100 µM | TGI (NCI/ADR-RES ovarian): > 100 µM | TGI (OVCAR-3 ovarian): > 100 µM | TGI (OVCAR-4 ovarian): > 100 µM | TGI (OVCAR-5 ovarian): > 100 µM | TGI (OVCAR-8 ovarian): > 100 µM | TGI (PC-3 prostate): > 100 µM | TGI (RPMI-8226 leukemia): > 100 µM | TGI (RXF 393 renal): > 100 µM | TGI (SF-268 CNS): > 100 µM | TGI (SF-295 CNS): > 100 µM | TGI (SF-539 CNS): > 100 µM | TGI (SK-MEL-2 melanoma): > 100 µM | TGI (SK-MEL-5 melanoma): > 100 µM | TGI (SK-OV-3 ovarian): > 100 µM | TGI (SNB-19 CNS): > 100 µM | TGI (SNB-75 CNS): > 100 µM | TGI (SW-620 colon): > 100 µM | TGI (T-47D breast): > 100 µM | TGI (TK-10 renal): > 100 µM | TGI (U251 CNS): > 100 µM | TGI (UACC-257 melanoma): > 100 µM | TGI (UACC-62 melanoma): > 100 µM | TGI (UO-31 renal): > 100 µM

CCCCC(SC(=S)N1CCCC1)C(=O)Nc1nc(CC(=O)OCC)cs1 (configuration not stated)
GI50 (786-0 renal): 62.2 µM | TGI (786-0 renal): > 100 µM | GI50 (A498 renal): 64.6 µM | TGI (A498 renal): > 100 µM | GI50 (A549 NSCLC): 31.7 µM | TGI (A549 NSCLC): > 100 µM | GI50 (ACHN renal): 59.3 µM | TGI (ACHN renal): > 100 µM | GI50 (BT-549 breast): 59.7 µM | TGI (BT-549 breast): > 100 µM | GI50 (CAKI-1 renal): > 100 µM | TGI (CAKI-1 renal): > 100 µM | GI50 (DU-145 prostate): 67.3 µM | TGI (DU-145 prostate): > 100 µM | GI50 (EKVX NSCLC): 56.4 µM | TGI (EKVX NSCLC): > 100 µM | GI50 (HCC-2998 colon): 99.5 µM | TGI (HCC-2998 colon): > 100 µM | GI50 (HCT-116 colon): 28.9 µM | TGI (HCT-116 colon): > 100 µM | GI50 (HCT-15 colon): 66.1 µM | TGI (HCT-15 colon): > 100 µM | GI50 (HL-60(TB) leukemia): 25 µM | TGI (HL-60(TB) leukemia): > 100 µM | GI50 (HOP-62 NSCLC): > 100 µM | TGI (HOP-62 NSCLC): > 100 µM | GI50 (HOP-92 NSCLC): 36.6 µM | TGI (HOP-92 NSCLC): > 100 µM | GI50 (HS 578T breast): > 100 µM | TGI (HS 578T breast): > 100 µM | GI50 (HT29 colon): 21.8 µM | TGI (HT29 colon): > 100 µM | GI50 (IGROV1 ovarian): 7.98 µM | TGI (IGROV1 ovarian): > 100 µM | GI50 (K-562 leukemia): 15.6 µM | TGI (K-562 leukemia): > 100 µM | GI50 (KM12 colon): 45.3 µM | TGI (KM12 colon): > 100 µM | GI50 (LOX IMVI melanoma): 36.1 µM | TGI (LOX IMVI melanoma): > 100 µM | GI50 (M14 melanoma): 32.9 µM | TGI (M14 melanoma): > 100 µM | GI50 (MALME-3M melanoma): > 100 µM | TGI (MALME-3M melanoma): > 100 µM | GI50 (MCF7 breast): 1.25 µM | TGI (MCF7 breast): > 100 µM | GI50 (MDA-MB-231 breast): > 100 µM | TGI (MDA-MB-231 breast): > 100 µM | GI50 (MDA-MB-435): 35.4 µM | TGI (MDA-MB-435): > 100 µM | GI50 (MOLT-4 leukemia): 1.91 µM | TGI (MOLT-4 leukemia): > 100 µM | GI50 (NCI-H226 lung): 71 µM | TGI (NCI-H226 lung): > 100 µM | GI50 (NCI-H522 lung): 6.87 µM | TGI (NCI-H522 lung): > 100 µM | GI50 (NCI/ADR-RES ovarian): 37.6 µM | TGI (NCI/ADR-RES ovarian): > 100 µM | GI50 (OVCAR-3 ovarian): 9.52 µM | TGI (OVCAR-3 ovarian): > 100 µM | GI50 (OVCAR-4 ovarian): 43.4 µM | TGI (OVCAR-4 ovarian): > 100 µM | GI50 (OVCAR-5 ovarian): 37.2 µM | TGI (OVCAR-5 ovarian): > 100 µM | GI50 (OVCAR-8 ovarian): 40.1 µM | TGI (OVCAR-8 ovarian): > 100 µM | GI50 (PC-3 prostate): 0.985 µM | TGI (PC-3 prostate): > 100 µM | GI50 (RPMI-8226 leukemia): 10.6 µM | TGI (RPMI-8226 leukemia): 90.9 µM | GI50 (RXF 393 renal): 41.7 µM | TGI (RXF 393 renal): > 100 µM | GI50 (SF-268 CNS): 37.5 µM | TGI (SF-268 CNS): > 100 µM | GI50 (SF-295 CNS): 47.3 µM | TGI (SF-295 CNS): > 100 µM | GI50 (SF-539 CNS): 72.4 µM | TGI (SF-539 CNS): > 100 µM | GI50 (SK-MEL-2 melanoma): 36.1 µM | TGI (SK-MEL-2 melanoma): > 100 µM | GI50 (SK-MEL-28 melanoma): 67.4 µM | TGI (SK-MEL-28 melanoma): > 100 µM | GI50 (SK-MEL-5 melanoma): 13.1 µM | TGI (SK-MEL-5 melanoma): 45.6 µM | GI50 (SK-OV-3 ovarian): 97.4 µM | TGI (SK-OV-3 ovarian): > 100 µM | GI50 (SN12C renal): 85.2 µM | TGI (SN12C renal): > 100 µM | GI50 (SNB-19 CNS): 65.1 µM | TGI (SNB-19 CNS): > 100 µM | GI50 (SNB-75 CNS): > 100 µM | TGI (SNB-75 CNS): > 100 µM | GI50 (SR leukemia): 4.83 µM | TGI (SR leukemia): > 100 µM | GI50 (SW-620 colon): 68.6 µM | TGI (SW-620 colon): > 100 µM | GI50 (T-47D breast): 30.5 µM | TGI (T-47D breast): > 100 µM | GI50 (TK-10 renal): > 100 µM | TGI (TK-10 renal): > 100 µM | GI50 (U251 CNS): 53.8 µM | TGI (U251 CNS): > 100 µM | GI50 (UACC-257 melanoma): 47.9 µM | TGI (UACC-257 melanoma): > 100 µM | GI50 (UACC-62 melanoma): 76.4 µM | TGI (UACC-62 melanoma): > 100 µM | GI50 (UO-31 renal): 36.9 µM | TGI (UO-31 renal): > 100 µM
